Measured values: US11584928B2, “Methods for generating barcoded combinatorial libraries” (The Regents of the University of Colorado, priority 2016, dated 2023)

These substances were tested on galK (assay: galK editing with MAD2 or MAD7 nuclease and various guide nucleic acid scaffolds, white/red screening). Details: guide sequence targeting galK.
Format: cell-based, E. coli
From the text: MAD2 and MAD7 nucleases are nucleic acid-guided nuclease that can be used in the methods disclosed herein. Nucleases Mad2 (SEQ ID NO: 2) and Mad 7 (SEQ ID NO: 7) were cloned and transformed into cells. Editing cassettes designed to mutate a target site in a galK gene were designed with mutations, which allowed for white/red screening of successfully editing colonies. The editing cassettes also encoded a guide nucleic acid designed to target galK. The editing cassettes were transformed into E. coli cells expressing MAD2, MAD7, or Cas9. […] In this example, the guide nucleic acid used with MAD2 and MAD7 comprised a scaffold-12 sequence and a guide sequence targeting galK. The guide nucleic acid used with Cas9 comprised a sequence compatible with the S. pyogenes Cas9.
FIG. 32 and Table 3 show more examples of gene editing using the MAD2 nuclease. In this experiment, different guide nucleic acid sequences were tested. The guide sequence of the guide nucleic acids targeted the galK gene as described above. The scaffold sequence of the guide nucleic acids were one of various sequences tested as indicated.
FIG. 33 and Table 4 show more examples of gene editing using the MAD7 nuclease. In this experiment, different guide nucleic acid sequences were tested. The guide sequence of the guide nucleic acids targeted the galK gene as described above. The scaffold sequence of the guide nucleic acids were one of various sequences tested as indicated. […] Table 3 and Table 4 also provided the designed mutations in the editing cassettes that were used to mutate the galK target gene.

| Substance | formation of functional complexes with MAD2 | formation of functional complexes with MAD7 |
| --- | --- | --- |
| scaffold-12: guide nucleic acid scaffold sequence, SEQ ID NO: 95 (guide GTCAAAAGACCTTTTTAATTTCTACTCTTGTAGAT; chemistry not given here) | able to form functional complexes | able to form functional complexes |
| scaffold-5: guide nucleic acid scaffold sequence, SEQ ID NO: 88 (guide CCGTCTAAAACTCATTCAGAATTTCTACTAGTGTAGAT; chemistry not given here) | able to form functional complexes |  |
| scaffold-11: guide nucleic acid scaffold sequence, SEQ ID NO: 94 (guide GTCTGGCCCCAAATTTTAATTTCTACTGTTGTAGAT; chemistry not given here) | able to form functional complexes | able to form functional complexes |
| scaffold-10: guide nucleic acid scaffold sequence, SEQ ID NO: 93 (guide CTCTACAACTGATAAAGAATTTCTACTTTTGTAGAT; chemistry not given here) | able to form functional complexes | able to form functional complexes |
